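Tested at 5 concentrations; 48 h exposure; 96-well plates; endpoints linearly interpolated, else capped at highest concentration. TGI: concentration producing complete growth inhibition.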
What was measured:
Test in all cases: inhibition of tumour cell growth, NCI panel, 48 h
DMS 273 small cell lung = system: DMS 273 small cell lung
KM20L2 colon = system: KM20L2 colon
SNB-78 CNS = system: SNB-78 CNS
XF 498 CNS = system: XF 498 CNS
RXF-631 renal = system: RXF-631 renal

Row | Compound | TGI (DMS 273 small cell lung) | TGI (KM20L2 colon) | TGI (SNB-78 CNS) | TGI (XF 498 CNS) | TGI (RXF-631 renal)
1 | COC(=O)[C@@]12OC[C@]34C([C@@H](O)C1O)[C@@]1(C)CC(=O)C(OC(=O)CC(C)C(F)(F)F)=C(C)C1C[C@H]3OC(=O)[C@H](O)[C@H]42 (some centres not stated) | 11.2 µM | > 62.5 µM | > 62.5 µM | 5.18 µM | –
2 | O=C1c2ccccc2N2OC3(N4CCOCC4)CCCC3C12c1ccccc1 (configuration not stated) | > 100 µM | > 100 µM | > 100 µM | > 100 µM | –
3 | C1CSCCSCCCS[C@@H]2CCCCC2SC1 (some centres not stated) | > 100 µM | > 100 µM | > 100 µM | – | –
4 | CC(C)(CN1CCCCC1)C(=O)/C=C/c1ccc(Br)cc1 | 4.92 µM | 6.85 µM | 31.6 µM | 6.21 µM | –
5 | CCCCCCCCOCC(COC(=O)CCCCCCC)OC(=O)CCCCCCC (configuration not stated) | > 100 µM | > 100 µM | – | – | > 100 µM
6 | CN1CCOC(C(NC(=O)c2ccccc2)c2ccccc2)C1=O (configuration not stated) | > 100 µM | > 100 µM | > 100 µM | – | –
7 | C1CCC(N=C2N(C3CCCCC3)C(=NC3CCCCC3)N2C2CCCCC2)CC1 | > 100 µM | > 100 µM | – | > 100 µM | –
8 | O=C1CC(c2ccc(Cl)cc2)=Nc2ccccc2N1 | > 100 µM | > 100 µM | > 100 µM | – | > 100 µM
9 | CCOC(=O)C1S(=O)(=O)OCCOS1(=O)=O | > 100 µM | – | > 100 µM | > 100 µM | > 100 µM
